Data as given in US5043332A, “Novel 11β-substituted -19-nor-steriods” (priority 1981, dated 1991).
Like-named read-outs stand apart in the source and are kept apart here.

Columns and labels:
[1] = molecular target: T1, Estrogen receptor of uterus of mice (Mus musculus, UniProt P19785); experiment: Estrogen receptor binding (displacement of tritiated estradiol)
T1 construct: the uterus were removed and homogenized at 0° C; from tissue; host or cells: mouse uterus, 105,000 g supernatant (immature females 18 to 21 days old)
T1 sequence (P19785 1-599): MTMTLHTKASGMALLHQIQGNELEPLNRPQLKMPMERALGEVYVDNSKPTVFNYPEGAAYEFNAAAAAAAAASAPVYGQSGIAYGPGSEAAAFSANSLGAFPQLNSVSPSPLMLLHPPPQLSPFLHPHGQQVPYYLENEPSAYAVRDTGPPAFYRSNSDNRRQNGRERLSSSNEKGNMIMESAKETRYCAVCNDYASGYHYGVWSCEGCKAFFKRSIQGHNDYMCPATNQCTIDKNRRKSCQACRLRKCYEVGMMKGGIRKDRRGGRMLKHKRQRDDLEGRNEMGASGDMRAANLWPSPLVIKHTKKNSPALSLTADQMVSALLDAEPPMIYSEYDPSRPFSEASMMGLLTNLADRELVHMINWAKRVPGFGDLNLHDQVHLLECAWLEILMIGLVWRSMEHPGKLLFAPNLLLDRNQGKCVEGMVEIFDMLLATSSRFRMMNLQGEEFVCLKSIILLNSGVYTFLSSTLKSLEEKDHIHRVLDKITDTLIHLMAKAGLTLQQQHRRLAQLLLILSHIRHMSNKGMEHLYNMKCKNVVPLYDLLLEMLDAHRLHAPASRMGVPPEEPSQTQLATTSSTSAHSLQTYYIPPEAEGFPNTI
Procedure: E. Estrogen receptor of uterus of mice
Immature female mice 18 to 21 days old were killed and the uterus were removed and homogenized at 0° C. with a polytetrafluoroethylene-glass Potter in a buffered TS solution consisting of 10 mM, Tris, 0125M Saccharose, HCl for a pH of 7.4 at a rate of 1 g of tissue per 25 ml of TS. The homogenate was then ultracentrigued at 105,000 g for 90 minutes at 0° C. and aliquoits of the resulting […] were incubated at 0° C. for a time (t) with a constant concentration (T) of tritiated estradiol in the presence of increasing concentrations (0 to 1000×10^-9 M) of either cold estradiol or cold test compound. The concentration of tied tritiated estradiol (B) was measured for each incubate by the technique of adsorption on carbon-dextran.
(§1) The calculation of the relative affinity of […] (ARL) was identical for all of the above receptor tests. One traced the following two curves: the percentage of tied tritiated hormone B/T as a function of the logarithm of the cold hormone concentration and B/T as a function of the logarithm of the concentration of the cold test product. One determined the line of the equation. [formula]
(§2) The intersection of the I50 line and the curves permits one to determine the concentrations of the cold hormone of the reference (CH) and the cold test compound (CX) which inhibit by 50% the tieing of tritiated hormone with the receptor. The relative affinity of tieing (ARL) of the test product was determined by the equation: [formula]

[2] = molecular target: T2, Gluocorticoid receptor of thymus of rats (Rattus norvegicus, UniProt P06536); experiment: Glucocorticoid receptor binding (displacement of tritiated dexamethasone)
T2 construct: The thymus were removed and homogenized at 0° C; from tissue; host or cells: rat thymus, 105,000 g supernatant (adrenalectomized male Sprague-Dawley rats)
T2 sequence (P06536 1-795): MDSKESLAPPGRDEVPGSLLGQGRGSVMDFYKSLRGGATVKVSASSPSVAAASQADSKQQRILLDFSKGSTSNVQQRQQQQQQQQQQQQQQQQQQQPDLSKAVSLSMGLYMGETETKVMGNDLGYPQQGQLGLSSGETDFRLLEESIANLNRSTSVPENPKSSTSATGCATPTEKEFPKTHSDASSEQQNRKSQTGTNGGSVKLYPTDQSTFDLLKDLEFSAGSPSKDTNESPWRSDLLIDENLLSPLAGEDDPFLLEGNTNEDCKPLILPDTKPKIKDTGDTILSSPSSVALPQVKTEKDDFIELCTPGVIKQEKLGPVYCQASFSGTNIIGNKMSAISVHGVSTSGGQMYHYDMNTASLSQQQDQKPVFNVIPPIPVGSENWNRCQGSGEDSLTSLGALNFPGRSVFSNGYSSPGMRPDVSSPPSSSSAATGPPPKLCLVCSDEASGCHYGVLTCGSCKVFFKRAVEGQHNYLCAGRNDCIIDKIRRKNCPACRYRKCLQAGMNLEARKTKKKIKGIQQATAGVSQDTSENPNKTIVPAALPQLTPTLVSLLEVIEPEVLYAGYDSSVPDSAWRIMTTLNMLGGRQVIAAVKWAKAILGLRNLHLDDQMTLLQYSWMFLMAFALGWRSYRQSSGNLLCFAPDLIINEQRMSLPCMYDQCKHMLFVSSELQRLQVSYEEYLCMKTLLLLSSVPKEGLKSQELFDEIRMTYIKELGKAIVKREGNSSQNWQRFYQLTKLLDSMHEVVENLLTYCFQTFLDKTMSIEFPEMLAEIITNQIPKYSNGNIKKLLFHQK
Procedure: D. Gluocorticoid receptor of thymus of rats
Male Sprague-Dawley EPOS rats weighing 160 to 200 g were surrenalectomized and the animals were killed 4 to 8 days later. The thymus were removed and homogenized at 0° C. in a buffered TS solution of 10 mM, Tris, 0.25M of Saccharose, 2 mM of dithiothreitol HCl for a pH of 7.4 using a polytetrafluoroethylene-glass Potter at a rate of 1 g of tissue per 10 ml of TS. […] The concentration of tied tritiated dexamethasone (B) was measured for each incubate by the adsorption on carbon-dextran technique.
as §1, §2

[3] = system: thymocytes of surrenalectomized rats; experiment: Antiglucocorticoidal activity, incorporation of tritiated uridine in thymocytes; type: cell-based; conditions: for % inhibition of effect of Dexamethasone (symbol) / inhibition at 1 µM / % of inhibition of effect of Dexamethasone (symbol): 5 × 10^-8 M dexamethasone + test product 10^-6 M; for inhibition at 0.1 µM / inhibition at 0.01 µM / inhibition at 1 µM: Rattus norvegicus, Thymocyte; for inhibition at 0.1 µM: 5 × 10^-8 M dexamethasone + test product 10^-7 M; for inhibition at 0.01 µM: 5 × 10^-8 M dexamethasone + test product 10^-8 M; for opposition to the effect of dexamethasone on tritiated uridine incorporation (in words): with 5×10^-8 M dexamethasone
[4] = read-out: % inhibition of effect of Dexamethasone
[5] = second table, incubation 2 H at 0° C.
[6] = second table, incubation 4 H at 0° C.
[7] = second table, incubation 24 H at 0° C.
[8] = second table, read-out: % of inhibition of effect of Dexamethasone

SMILES | relative affinity of tieing (ARL), Estrogen ([1]; incubation 2 H at 0° C.) | relative affinity of tieing (ARL), Estrogen ([1]; incubation 5 H (25° C.)) | relative affinity of tieing (ARL), Glucocorticoid ([2]; incubation 4 H at 0° C.) | relative affinity of tieing (ARL), Glucocorticoid ([2]; incubation 24 H at 0° C.) | % inhibition of effect of Dexamethasone (symbol) [3] | inhibition at 0.1 µM [3, 4] | inhibition at 0.01 µM [3, 4] | opposition to the effect of dexamethasone on tritiated uridine incorporation (in words) [3] | inhibition at 1 µM [3, 4] | relative affinity of tieing (ARL), Estrogen [1, 5] | relative affinity of tieing (ARL), Glucocorticoid [2, 6] | relative affinity of tieing (ARL), Glucocorticoid [2, 7] | inhibition at 1 µM [3, 8] | inhibition at 0.1 µM [3, 8] | inhibition at 0.01 µM [3, 8] | % of inhibition of effect of Dexamethasone (symbol) ([3]; second table) | affinity for glucocorticoid receptors (in words) ([2]; conclusion)
CC#C[C@]1(O)CC[C@H]2[C@@H]3CCC4=CC(=O)C(C)(C)CC4=C3[C@@H](c3ccc(N(C)C)cc3)C[C@@]21C [Example 1, 2,2-dimethyl-11β-(4-dimethylaminophenyl)-17α-(prop-1-ynyl)-Δ^4,9-estradiene-17β-ol-3-one] | < 0,1 | < 0,1 | 97 | 38 | * (A dose of 10^-6 M inhibited the effect of dexamethasone totally) | 18% | 8% | opposed this effect | – | – | – | – | – | – | – | – | –
CC#C[C@]1(O)CC[C@H]2[C@@H]3CCC4=CC(=O)C(C#N)(C#N)CC4=C3[C@@H](c3ccc(N(C)C)cc3)C[C@@]21C [Example 9, 2,2-dicyano-11β-(4-dimethylaminophenyl)-17α-(prop-1-ynyl)-Δ^4,9-estradiene-17β-ol-3-one] | < 0,1 | < 0,1 | 14 | 7 | – | 1% | 3% | – | 2% | – | – | – | – | – | – | – | –
CC#C[C@]1(O)CC[C@H]2[C@@H]3CCC4=C(CCC(=O)C4)[C@H]3[C@@H](c3ccc(N(C)C)cc3)C[C@@]21C [Example 10, 11β-(4-dimethylaminophenyl)-17α-(prop-1-ynyl)-Δ^5(10) -estrene-17β-ol-3-one] | < 0,1 | < 0,1 | 83 | 115 | * (A dose of 10^-6 M inhibited the effect of dexamethasone totally) | 23% | 0% | opposed this effect | – | – | – | – | – | – | – | – | –
C#C[C@@]1(O)CC[C@H]2[C@@H]3CCC4=CC(=O)CCC4=C3[C@@H](c3ccc(N(C)C)cc3)C[C@@]21C [Example 21, 11β-[4-(N,N-dimethylamino)-phenyl]-17β-ethynyl-Δ^4,9-estradiene-17α-ol-3-one] | – | – | – | – | – | – | – | opposed this effect | – | 0 | 171 | 118 | 83% | 15% | 5% | – | –
C=C(C)C#C[C@]1(O)CC[C@H]2[C@@H]3CCC4=CC(=O)CCC4=C3[C@@H](c3ccc(N(C)C)cc3)C[C@@]21C [Example 23, 11β-[4-(N,N-dimethylamino)-phenyl]-23-methyl-19,21-dinor-17α-Δ^4,9,23-cholatriene-20-yn-17β-ol-3-one] | – | – | – | – | – | – | – | opposed this effect | – | 0 | 212 | 167 | – | 53% | 22% | * (A dose of 10^-6 M inhibited totally the effect of dexamethasone) | –
CN(C)c1ccc([C@H]2C[C@@]3(C)[C@@H](CC[C@@]3(O)C#CCl)[C@@H]3CCC4=CC(=O)CCC4=C32)cc1 [Example 25, 11β-[4-(N,N-dimethylamino)-phenyl]-21-chloro-19-nor-17α-Δ^4,9-pregnadiene-20-yne-17β-ol-3-one] | – | – | – | – | – | – | – | opposed this effect | – | 0 | 254 | 292 | – | 85% | 57% | * (A dose of 10^-6 M inhibited totally the effect of dexamethasone) | very remarkable affinity
C[C@]12C[C@H](c3ccc([N+](C)(C)[O-])cc3)C3=C4CCC(=O)C=C4CC[C@H]3[C@@H]1CC[C@@]2(O)C#CCl [Example 26, N-oxide of 11β-[4-(N,N-dimethylamino)-phenyl]-21-chloro-19-nor-17α-Δ^4,9-pregnadiene-20-yne-17β-ol-3-one] | – | – | – | – | – | – | – | opposed this effect | – | 0 | 9 | 14 | 75% | 34% | 14% | – | –
CN(C)c1ccc([C@H]2C[C@@]3(C)[C@@H](CC[C@@]3(O)C#Cc3ccccc3)[C@@H]3CCC4=CC(=O)CCC4=C32)cc1 [Example 29, 11β-[4-(N,N-dimethylamino)-phenyl]-21-phenyl-19-nor-17α-Δ^4,9-pregnadiene-20-yne-17β-ol-3-one] | – | – | – | – | – | – | – | opposed this effect | – | 0 | 46 | 94 | – | 57% | 18% | * (A dose of 10^-6 M inhibited totally the effect of dexamethasone) | –
